Reference: PubChem BioAssay (NCI)
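Briefly, cells in 96-well plates were exposed to five compound concentrations for 48 h, and endpoints were estimated by linear interpolation. GI50 is the concentration that inhibits growth by half. TGI: total growth inhibition.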

What was measured:
Assay in all cases: growth of human tumour cells (NCI), 48 h
UACC-62 melanoma = tested on: UACC-62 melanoma
HOP-62 NSCLC = tested on: HOP-62 NSCLC
HL-60(TB) leukemia = tested on: HL-60(TB) leukemia
HCT-15 colon = tested on: HCT-15 colon
OVCAR-8 ovarian = tested on: OVCAR-8 ovarian
SF-539 CNS = tested on: SF-539 CNS
SN12C renal = tested on: SN12C renal
SW-620 colon = tested on: SW-620 colon
HT29 colon = tested on: HT29 colon
T-47D breast = tested on: T-47D breast
OVCAR-3 ovarian = tested on: OVCAR-3 ovarian
SF-295 CNS = tested on: SF-295 CNS
A549 NSCLC = tested on: A549 NSCLC
SNB-19 CNS = tested on: SNB-19 CNS
MCF7 breast = tested on: MCF7 breast
TK-10 renal = tested on: TK-10 renal
OVCAR-5 ovarian = tested on: OVCAR-5 ovarian
SK-MEL-2 melanoma = tested on: SK-MEL-2 melanoma
UACC-257 melanoma = tested on: UACC-257 melanoma
DU-145 prostate = tested on: DU-145 prostate
K-562 leukemia = tested on: K-562 leukemia
CAKI-1 renal = tested on: CAKI-1 renal
NCI-H460 lung = tested on: NCI-H460 lung
NCI/ADR-RES ovarian = tested on: NCI/ADR-RES ovarian
NCI-H23 lung = tested on: NCI-H23 lung
COLO 205 colon = tested on: COLO 205 colon
SK-OV-3 ovarian = tested on: SK-OV-3 ovarian
HCT-116 colon = tested on: HCT-116 colon
CCRF-CEM leukemia = tested on: CCRF-CEM leukemia
HCC-2998 colon = tested on: HCC-2998 colon
NCI-H522 lung = tested on: NCI-H522 lung
KM12 colon = tested on: KM12 colon
MALME-3M melanoma = tested on: MALME-3M melanoma
ACHN renal = tested on: ACHN renal
EKVX NSCLC = tested on: EKVX NSCLC
RXF 393 renal = tested on: RXF 393 renal
SK-MEL-28 melanoma = tested on: SK-MEL-28 melanoma
A498 renal = tested on: A498 renal
PC-3 prostate = tested on: PC-3 prostate
786-0 renal = tested on: 786-0 renal
SNB-75 CNS = tested on: SNB-75 CNS
MDA-MB-435 = tested on: MDA-MB-435
RPMI-8226 leukemia = tested on: RPMI-8226 leukemia
MOLT-4 leukemia = tested on: MOLT-4 leukemia
BT-549 breast = tested on: BT-549 breast
IGROV1 ovarian = tested on: IGROV1 ovarian
U251 CNS = tested on: U251 CNS
HOP-92 NSCLC = tested on: HOP-92 NSCLC
M14 melanoma = tested on: M14 melanoma
HS 578T breast = tested on: HS 578T breast
LOX IMVI melanoma = tested on: LOX IMVI melanoma
SK-MEL-5 melanoma = tested on: SK-MEL-5 melanoma
MDA-MB-468 breast = tested on: MDA-MB-468 breast
NCI-H226 lung = tested on: NCI-H226 lung
SF-268 CNS = tested on: SF-268 CNS
OVCAR-4 ovarian = tested on: OVCAR-4 ovarian

`COc1ccc2[nH]c(=O)c(CSc3nccc(-c4ccc(Cl)cc4)n3)cc2c1` gave a GI50 (UACC-62 melanoma) of 15.3 µM, a TGI (UACC-62 melanoma) of 78.3 µM and a GI50 (HOP-62 NSCLC) of 16.5 µM. For the same compound, the TGI (HOP-62 NSCLC) was 34.3 µM, the GI50 (HL-60(TB) leukemia) was > 100 µM and the TGI (HL-60(TB) leukemia) was > 100 µM. For the same compound, the GI50 (HCT-15 colon) was 22 µM, the TGI (HCT-15 colon) was 65.8 µM and the GI50 (OVCAR-8 ovarian) was 16.8 µM. It also gave a TGI (OVCAR-8 ovarian) of 32.4 µM, a GI50 (SF-539 CNS) of 14.9 µM and a TGI (SF-539 CNS) of 29.7 µM. For the same compound, the GI50 (SN12C renal) was 15.2 µM, the TGI (SN12C renal) was 32.9 µM and the GI50 (SW-620 colon) was 20.6 µM. For the same compound, the TGI (SW-620 colon) was 45.9 µM, the GI50 (HT29 colon) was 28.9 µM and the TGI (HT29 colon) was > 100 µM. For the same compound, the GI50 (T-47D breast) was 13.7 µM, the TGI (T-47D breast) was 31 µM and the GI50 (OVCAR-3 ovarian) was 18.6 µM. It also gave a TGI (OVCAR-3 ovarian) of 39.1 µM, a GI50 (SF-295 CNS) of 14.4 µM and a TGI (SF-295 CNS) of 28.4 µM. The GI50 (A549 NSCLC) was 14.6 µM, the TGI (A549 NSCLC) was 30.8 µM and the GI50 (SNB-19 CNS) was 18 µM. The TGI (SNB-19 CNS) was 43.5 µM, the GI50 (MCF7 breast) was 17 µM and the TGI (MCF7 breast) was 33.5 µM. For the same compound, the GI50 (TK-10 renal) was 16.6 µM, the TGI (TK-10 renal) was 36.1 µM and the GI50 (OVCAR-5 ovarian) was 24.7 µM. It also gave a TGI (OVCAR-5 ovarian) of 93 µM, a GI50 (SK-MEL-2 melanoma) of 18.1 µM and a TGI (SK-MEL-2 melanoma) of 44 µM. The GI50 (UACC-257 melanoma) was 22.2 µM, the TGI (UACC-257 melanoma) was 55.6 µM and the GI50 (DU-145 prostate) was 26 µM. The TGI (DU-145 prostate) was > 100 µM, the GI50 (K-562 leukemia) was 27.8 µM and the TGI (K-562 leukemia) was > 100 µM. For the same compound, the GI50 (CAKI-1 renal) was 15.8 µM, the TGI (CAKI-1 renal) was 37.7 µM and the GI50 (NCI-H460 lung) was 17.2 µM. It also gave a TGI (NCI-H460 lung) of 35.4 µM, a GI50 (NCI/ADR-RES ovarian) of 15.4 µM and a TGI (NCI/ADR-RES ovarian) of 38.7 µM. The GI50 (NCI-H23 lung) was 18.9 µM, the TGI (NCI-H23 lung) was 42.5 µM and the GI50 (COLO 205 colon) was 23.9 µM. The TGI (COLO 205 colon) was 61.7 µM, the GI50 (SK-OV-3 ovarian) was 39.3 µM and the TGI (SK-OV-3 ovarian) was > 100 µM. It also gave a GI50 (HCT-116 colon) of 13 µM, a TGI (HCT-116 colon) of 26.8 µM and a GI50 (CCRF-CEM leukemia) of 77.1 µM. The TGI (CCRF-CEM leukemia) was > 100 µM, the GI50 (HCC-2998 colon) was 22.5 µM and the TGI (HCC-2998 colon) was 56.3 µM. The GI50 (NCI-H522 lung) was 14.8 µM, the TGI (NCI-H522 lung) was 28.5 µM and the GI50 (KM12 colon) was 29.2 µM. For the same compound, the TGI (KM12 colon) was 90.9 µM, the GI50 (MALME-3M melanoma) was 18.6 µM and the TGI (MALME-3M melanoma) was 38.6 µM. It also gave a GI50 (ACHN renal) of 16.8 µM, a TGI (ACHN renal) of 40.1 µM and a GI50 (EKVX NSCLC) of 31.2 µM. The TGI (EKVX NSCLC) was > 100 µM, the GI50 (RXF 393 renal) was 14.4 µM and the TGI (RXF 393 renal) was 28.5 µM. For the same compound, the GI50 (SK-MEL-28 melanoma) was 20.6 µM, the TGI (SK-MEL-28 melanoma) was 51.6 µM and the GI50 (A498 renal) was 23.8 µM. The TGI (A498 renal) was 63 µM, the GI50 (PC-3 prostate) was 19 µM and the TGI (PC-3 prostate) was > 100 µM. For the same compound, the GI50 (786-0 renal) was 13.8 µM, the TGI (786-0 renal) was 26.7 µM and the GI50 (SNB-75 CNS) was 23.7 µM. The TGI (SNB-75 CNS) was 65.1 µM, the GI50 (MDA-MB-435) was 30 µM and the TGI (MDA-MB-435) was > 100 µM. It also gave a GI50 (RPMI-8226 leukemia) of 11.7 µM, a TGI (RPMI-8226 leukemia) of 39.5 µM and a GI50 (MOLT-4 leukemia) of 12 µM. For the same compound, the TGI (MOLT-4 leukemia) was > 100 µM, the GI50 (BT-549 breast) was 20 µM and the TGI (BT-549 breast) was > 100 µM. It also gave a GI50 (IGROV1 ovarian) of 25.5 µM, a TGI (IGROV1 ovarian) of 89.7 µM and a GI50 (U251 CNS) of 15.2 µM. It also gave a TGI (U251 CNS) of 28.8 µM, a GI50 (HOP-92 NSCLC) of 6.22 µM and a TGI (HOP-92 NSCLC) of 32.5 µM. The GI50 (M14 melanoma) was 17.6 µM, the TGI (M14 melanoma) was 34.2 µM and the GI50 (HS 578T breast) was 26 µM. The TGI (HS 578T breast) was > 100 µM, the GI50 (LOX IMVI melanoma) was 17.1 µM and the TGI (LOX IMVI melanoma) was 34.2 µM. It also gave a GI50 (SK-MEL-5 melanoma) of 13.6 µM, a TGI (SK-MEL-5 melanoma) of 31.3 µM and a GI50 (MDA-MB-468 breast) of 12.5 µM. It also gave a TGI (MDA-MB-468 breast) of 26.1 µM, a GI50 (NCI-H226 lung) of 18.5 µM and a TGI (NCI-H226 lung) of 59.9 µM. The GI50 (SF-268 CNS) was 25.4 µM, the TGI (SF-268 CNS) was > 100 µM and the GI50 (OVCAR-4 ovarian) was 18.5 µM. It also gave a TGI (OVCAR-4 ovarian) of 64.9 µM.
